Reference: patent publication US20250154146A1, “PROTEIN DEGRADERS DEVELOPED ON BASIS OF BCL-2 FAMILY PROTEIN LIGAND COMPOUNDS AND USE THEREOF” (ShanghaiTech University, priority 2022, published 2025)

Each compound was assayed on Molt-4 cells (assay: Thiazolyl blue cell proliferation assay in Molt-4 cells). Details: Homo sapiens, Molt-4 acute lymphocytic leukemia cells, 72 hours, read-out: IC50 (nM) for inhibiting the proliferation of Molt-4 cells.
Format: cell-based
Excerpt: The cell lines RS4;11 (human acute lymphocytic leukemia cells), Molt-4 cells (human acute lymphocytic leukemia cells), MV4;11 (human myeloid monocytic leukemia cells), and Light II cells were commercially available or purchased from ATCC (American Type Culture Collection) and routinely cultured according to instructions.
3) Study on the proliferation inhibition effects induced by the compounds of the present disclosure designed based on ABT199/263 against BCL-XL-dependent Molt-4 cells:
The specific steps were as follows: Molt-4 cells were seeded at a density of 2×10^4 cells/well in 180 μL of serum-containing RPMI 1640 culture medium. DT2216 and the compounds of the present disclosure were added to the cell suspension at corresponding concentration gradients. DT2216 and DMSO were used as positive and vehicle control, respectively. The positive control and negative control were treated with the same treatment method as the compounds of the present disclosure. After treating the cells with the compounds of the present disclosure for 72 hours, thiazole blue solution (5 mg/mL) was added at 20 μL/well to the cell suspension, followed by incubation for 3 hours at 37° C. in an incubator with 5% CO2. Then, triple solution (0.1 g/mL SDS, 5% isopropyl alcohol, 10 mM hydrochloric acid) was added, followed by incubation for 4-6 hours at 37° C. in an incubator with 5% CO2. After confirming that all the crystal violets were dissolved under inverted biological microscopy, the absorbance was measured at 490 nm using an Epoch microplate reader (Biotek Corporation). The growth inhibition of the compounds of the present disclosure on the cells was plotted by GraphPad Prism 8 software, and the IC50 values of the compounds of the present disclosure were calculated therefrom. The experiment had 3 replicates per group and was repeated at least three times.

IC50, < 10 nM:
C[C@H]1CN([C@H]2CC[C@H](CNc3ccc(S(=O)(=O)NC(=O)c4ccc(N5CCN(CC6=C(c7ccc(Cl)cc7)CC(C)(C)CC6)CC5)cc4Oc4cnc5[nH]ccc5c4)cc3[N+](=O)[O-])CC2)CCN1Cc1cc(Br)c2c(c1)C(=O)N(C1CCC(=O)NC1=O)C2 (stereo partly drawn) [BCL-03170, 2-((1H-pyrrolo[2,3-b]pyridin-5-yl)oxy)-N-((4-((((trans)-4-((3S)-4-((7-bromo-2-(2,6-dioxopiperidin-3-yl)-3-oxoisoindolin-5-yl)methyl)-3-methylpiperazin-1-yl)cyclohexyl)methyl)amino)-3-nitrophenyl)sulfonyl)-4-(4-((4′-chloro-5,5-dimethyl-3,4,5,6-tetrahydro-[1,1′-biphenyl]-2-yl)methyl)piperazin-1-yl)benzamide]
C[C@@H]1CN([C@H]2CC[C@H](CNc3ccc(S(=O)(=O)NC(=O)c4ccc(N5CCN(CC6=C(c7ccc(Cl)cc7)CC(C)(C)CC6)CC5)cc4Oc4cnc5[nH]ccc5c4)cc3[N+](=O)[O-])CC2)CCN1Cc1cc(Br)c2c(c1)C(=O)N(C1CCC(=O)NC1=O)C2 (stereo partly drawn) [BCL-03172, 2-((1H-pyrrolo[2,3-b]pyridin-5-yl)oxy)-N-((4-((((trans)-4-((3R)-4-((7-bromo-2-(2,6-dioxopiperidin-3-yl)-3-oxoisoindolin-5-yl)methyl)-3-methylpiperazin-1-yl)cyclohexyl)methyl)amino)-3-nitrophenyl)sulfonyl)-4-(4-((4′-chloro-5,5-dimethyl-3,4,5,6-tetrahydro-[1,1′-biphenyl]-2-yl)methyl)piperazin-1-yl)benzamide]
C[C@@H]1CN([C@H]2CC[C@@H](CNc3ccc(S(=O)(=O)NC(=O)c4ccc(N5CCN(CC6=C(c7ccc(Cl)cc7)CC(C)(C)CC6)CC5)cc4Oc4cnc5[nH]ccc5c4)cc3[N+](=O)[O-])CC2)CCN1Cc1cc(Br)c2c(c1)C(=O)N(C1CCC(=O)NC1=O)C2 (stereo partly drawn) [BCL-03171, 2-((1H-pyrrolo[2,3-b]pyridin-5-yl)oxy)-N-((4-((((cis)-4-((3R)-4-((7-bromo-2-(2,6-dioxopiperidin-3-yl)-3-oxoisoindolin-5-yl)methyl)-3-methylpiperazin-1-yl)cyclohexyl)methyl)amino)-3-nitrophenyl)sulfonyl)-4-(4-((4′-chloro-5,5-dimethyl-3,4,5,6-tetrahydro-[1,1′-biphenyl]-2-yl)methyl)piperazin-1-yl)benzamide]
CC1(C)CCC(c2ccc(Cl)cc2)=C(CN2CCN(c3ccc(C(=O)NS(=O)(=O)c4ccc(N[C@H](CCN5CCN(Cc6cc(Br)c7c(c6)C(=O)N(C6CCC(=O)NC6=O)C7)CC5)CSc5ccccc5)c(S(=O)(=O)C(F)(F)F)c4)cc3)CC2)C1 (stereo partly drawn) [BCL-03178, N-((4-(((2R)-4-(4-((7-bromo-2-(2,6-dioxopiperidin-3-yl)-3-oxoisoindolin-5-yl)methyl)piperazin-1-yl)-1-(phenylthio)butan-2-yl)amino)-3-((trifluoromethyl)sulfonyl)phenyl)sulfonyl)-4-(4-((4′-chloro-4,4-dimethyl-3,4,5,6-tetrahydro-[1,1′-biphenyl]-2-yl)methyl)piperazin-1-yl)benzamide]
